What was measured:
[1] = molecular target: CDK1/cyclinB(h) (Homo sapiens, UniProt P06493); assay: Kinase panel, residual activity; format: biochemical; conditions: read-out: Percent residual activity
Protocol: (§1) In this panel of 124 kinases, 18 of the 19 kinases identified as having an active site cysteine were inhibited to some extent by hypothemycin at a concentration of 0.2 μM and/or 2 μM.

[2] = molecular target: CDK5/p35(h) (Homo sapiens, UniProt Q00535); assay: Kinase panel, residual activity; format: biochemical; conditions: read-out: Percent residual activity
Protocol: as §1

[3] = molecular target: CDK6/cyclinD3(h) (Homo sapiens, UniProt Q00534); assay: Kinase panel, residual activity; format: biochemical; conditions: read-out: Percent residual activity
Protocol: as §1

[4] = molecular target: CHK2(h) (Homo sapiens, UniProt O96017); assay: Kinase panel, residual activity; format: biochemical; conditions: read-out: Percent residual activity
Protocol: as §1

[5] = molecular target: EGFR(h) (Homo sapiens, UniProt P00533); assay: Kinase panel, residual activity; format: biochemical; conditions: read-out: Percent residual activity
Sequence of EGFR(h) (P00533 25-1210): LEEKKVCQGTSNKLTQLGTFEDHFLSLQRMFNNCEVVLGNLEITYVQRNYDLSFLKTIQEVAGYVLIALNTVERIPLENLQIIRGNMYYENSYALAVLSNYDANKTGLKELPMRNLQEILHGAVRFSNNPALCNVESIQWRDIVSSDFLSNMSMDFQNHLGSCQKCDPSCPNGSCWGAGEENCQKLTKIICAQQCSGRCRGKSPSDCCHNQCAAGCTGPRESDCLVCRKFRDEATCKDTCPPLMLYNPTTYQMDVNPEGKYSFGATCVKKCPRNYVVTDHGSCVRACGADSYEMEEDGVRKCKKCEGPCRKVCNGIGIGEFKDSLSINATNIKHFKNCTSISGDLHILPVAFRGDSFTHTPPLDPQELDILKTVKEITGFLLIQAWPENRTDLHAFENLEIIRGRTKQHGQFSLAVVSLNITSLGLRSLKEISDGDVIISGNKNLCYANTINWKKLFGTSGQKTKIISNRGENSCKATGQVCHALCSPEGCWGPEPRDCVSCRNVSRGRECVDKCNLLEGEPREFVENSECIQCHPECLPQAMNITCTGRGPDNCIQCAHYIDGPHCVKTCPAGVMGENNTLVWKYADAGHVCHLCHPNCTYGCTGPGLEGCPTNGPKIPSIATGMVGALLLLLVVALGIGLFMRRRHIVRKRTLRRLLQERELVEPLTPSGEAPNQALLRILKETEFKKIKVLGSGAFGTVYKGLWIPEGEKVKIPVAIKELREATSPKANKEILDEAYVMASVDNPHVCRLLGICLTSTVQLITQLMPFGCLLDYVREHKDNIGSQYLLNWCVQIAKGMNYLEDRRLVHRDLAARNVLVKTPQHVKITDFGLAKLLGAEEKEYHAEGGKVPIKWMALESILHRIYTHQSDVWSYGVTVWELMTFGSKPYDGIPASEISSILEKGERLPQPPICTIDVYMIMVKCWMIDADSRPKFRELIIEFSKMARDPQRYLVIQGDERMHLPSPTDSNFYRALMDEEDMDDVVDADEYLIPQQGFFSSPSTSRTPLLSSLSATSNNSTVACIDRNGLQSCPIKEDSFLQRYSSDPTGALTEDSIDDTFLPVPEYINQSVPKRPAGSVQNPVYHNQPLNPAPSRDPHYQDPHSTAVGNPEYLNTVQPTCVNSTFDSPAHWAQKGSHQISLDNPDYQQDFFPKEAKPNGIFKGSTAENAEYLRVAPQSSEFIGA
Protocol: as §1

[6] = molecular target: EphA2(h) (Homo sapiens, UniProt P29317); assay: Kinase panel, residual activity; format: biochemical; conditions: read-out: Percent residual activity
Protocol: as §1

[7] = molecular target: FGFR4(h) (Homo sapiens, UniProt P22455); assay: Kinase panel, residual activity; format: biochemical; conditions: read-out: Percent residual activity
Protocol: as §1

[8] = molecular target: Flt3(D835Y)(h) (Homo sapiens, UniProt P36888, D835Y); assay: Kinase panel, residual activity; format: biochemical; conditions: read-out: Percent residual activity
Protocol: as §1

[9] = molecular target: Fyn(h) (Homo sapiens, UniProt P06241); assay: Kinase panel, residual activity; format: biochemical; conditions: read-out: Percent residual activity
Protocol: as §1

[10] = molecular target: IKKα(h) (Homo sapiens, UniProt O15111); assay: Kinase panel, residual activity; format: biochemical; conditions: read-out: Percent residual activity
Protocol: as §1

[11] = molecular target: IKKβ(h) (Homo sapiens, UniProt O14920); assay: Kinase panel, residual activity; format: biochemical; conditions: read-out: Percent residual activity
Sequence of IKKβ(h) (O14920 whole entry): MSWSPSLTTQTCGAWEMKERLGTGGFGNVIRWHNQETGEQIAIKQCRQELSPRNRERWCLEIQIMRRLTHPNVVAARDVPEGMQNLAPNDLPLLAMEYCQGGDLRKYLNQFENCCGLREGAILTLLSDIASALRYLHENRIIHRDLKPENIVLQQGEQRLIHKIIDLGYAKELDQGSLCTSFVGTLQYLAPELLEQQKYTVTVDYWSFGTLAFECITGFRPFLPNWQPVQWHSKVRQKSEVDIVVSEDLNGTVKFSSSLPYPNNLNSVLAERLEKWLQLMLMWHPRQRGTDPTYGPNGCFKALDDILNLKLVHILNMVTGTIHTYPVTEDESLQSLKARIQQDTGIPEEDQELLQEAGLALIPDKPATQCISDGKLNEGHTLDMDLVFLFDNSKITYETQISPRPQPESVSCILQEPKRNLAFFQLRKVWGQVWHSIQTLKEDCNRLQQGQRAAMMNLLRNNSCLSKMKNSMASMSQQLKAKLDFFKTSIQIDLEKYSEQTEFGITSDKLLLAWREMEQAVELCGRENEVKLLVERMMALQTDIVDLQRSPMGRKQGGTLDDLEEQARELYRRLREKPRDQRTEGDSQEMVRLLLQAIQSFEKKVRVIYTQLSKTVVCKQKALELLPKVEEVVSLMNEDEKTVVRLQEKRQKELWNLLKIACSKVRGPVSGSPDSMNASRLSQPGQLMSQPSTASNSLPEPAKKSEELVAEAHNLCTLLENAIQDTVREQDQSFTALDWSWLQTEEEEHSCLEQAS
Protocol: as §1

[12] = molecular target: JNK2α2(h) (Homo sapiens, UniProt P45984); assay: Kinase panel, residual activity; format: biochemical; conditions: read-out: Percent residual activity
Protocol: as §1

[13] = molecular target: Lck(h) (Homo sapiens, UniProt P06239); assay: Kinase panel, residual activity; format: biochemical; conditions: read-out: Percent residual activity
Protocol: as §1

[14] = molecular target: Lyn(h) (Homo sapiens, UniProt P07948); assay: Kinase panel, residual activity; format: biochemical; conditions: read-out: Percent residual activity
Sequence of Lyn(h) (P07948 whole entry): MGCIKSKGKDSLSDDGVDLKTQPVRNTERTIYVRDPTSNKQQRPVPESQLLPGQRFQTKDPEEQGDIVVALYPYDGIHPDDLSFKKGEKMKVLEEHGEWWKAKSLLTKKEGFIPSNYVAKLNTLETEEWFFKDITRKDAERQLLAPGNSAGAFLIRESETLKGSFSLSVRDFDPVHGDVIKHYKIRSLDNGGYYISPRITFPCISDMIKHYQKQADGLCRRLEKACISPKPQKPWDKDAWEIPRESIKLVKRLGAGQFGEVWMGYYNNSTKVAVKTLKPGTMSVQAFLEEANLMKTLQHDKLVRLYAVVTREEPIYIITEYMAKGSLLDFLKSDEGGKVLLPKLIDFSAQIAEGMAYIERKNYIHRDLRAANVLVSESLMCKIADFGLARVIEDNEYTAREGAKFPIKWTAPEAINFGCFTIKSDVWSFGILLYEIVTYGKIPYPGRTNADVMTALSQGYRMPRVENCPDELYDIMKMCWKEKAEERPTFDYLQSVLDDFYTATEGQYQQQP
Protocol: as §1

[15] = molecular target: MAPKAP-K3(h) (Homo sapiens, UniProt Q16644); assay: Kinase panel, residual activity; format: biochemical; conditions: read-out: Percent residual activity
Protocol: as §1

[16] = molecular target: MKK7β(h) (Homo sapiens, UniProt O14733); assay: Kinase panel, residual activity; format: biochemical; conditions: read-out: Percent residual activity
Sequence of MKK7β(h) (O14733 whole entry): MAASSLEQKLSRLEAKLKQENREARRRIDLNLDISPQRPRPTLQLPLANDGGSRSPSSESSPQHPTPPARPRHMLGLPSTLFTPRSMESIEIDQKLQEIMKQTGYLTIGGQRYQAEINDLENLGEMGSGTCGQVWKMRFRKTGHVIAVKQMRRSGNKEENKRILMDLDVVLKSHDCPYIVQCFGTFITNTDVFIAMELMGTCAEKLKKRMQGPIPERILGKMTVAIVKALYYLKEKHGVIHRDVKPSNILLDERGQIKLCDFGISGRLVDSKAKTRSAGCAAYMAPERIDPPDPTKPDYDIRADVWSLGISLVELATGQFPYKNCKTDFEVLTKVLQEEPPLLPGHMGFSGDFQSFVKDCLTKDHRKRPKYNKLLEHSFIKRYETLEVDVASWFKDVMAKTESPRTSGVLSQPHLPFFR
Protocol: as §1

[17] = molecular target: MSK2(h) (Homo sapiens, UniProt O75676); assay: Kinase panel, residual activity; format: biochemical; conditions: read-out: Percent residual activity
Protocol: as §1

[18] = molecular target: MST2(h) (Homo sapiens, UniProt Q13188); assay: Kinase panel, residual activity; format: biochemical; conditions: read-out: Percent residual activity
Protocol: as §1

[19] = molecular target: PDGFRα(h) (Homo sapiens, UniProt P16234); assay: Kinase panel, residual activity; format: biochemical; conditions: read-out: Percent residual activity
Sequence of PDGFRα(h) (P16234 24-1089): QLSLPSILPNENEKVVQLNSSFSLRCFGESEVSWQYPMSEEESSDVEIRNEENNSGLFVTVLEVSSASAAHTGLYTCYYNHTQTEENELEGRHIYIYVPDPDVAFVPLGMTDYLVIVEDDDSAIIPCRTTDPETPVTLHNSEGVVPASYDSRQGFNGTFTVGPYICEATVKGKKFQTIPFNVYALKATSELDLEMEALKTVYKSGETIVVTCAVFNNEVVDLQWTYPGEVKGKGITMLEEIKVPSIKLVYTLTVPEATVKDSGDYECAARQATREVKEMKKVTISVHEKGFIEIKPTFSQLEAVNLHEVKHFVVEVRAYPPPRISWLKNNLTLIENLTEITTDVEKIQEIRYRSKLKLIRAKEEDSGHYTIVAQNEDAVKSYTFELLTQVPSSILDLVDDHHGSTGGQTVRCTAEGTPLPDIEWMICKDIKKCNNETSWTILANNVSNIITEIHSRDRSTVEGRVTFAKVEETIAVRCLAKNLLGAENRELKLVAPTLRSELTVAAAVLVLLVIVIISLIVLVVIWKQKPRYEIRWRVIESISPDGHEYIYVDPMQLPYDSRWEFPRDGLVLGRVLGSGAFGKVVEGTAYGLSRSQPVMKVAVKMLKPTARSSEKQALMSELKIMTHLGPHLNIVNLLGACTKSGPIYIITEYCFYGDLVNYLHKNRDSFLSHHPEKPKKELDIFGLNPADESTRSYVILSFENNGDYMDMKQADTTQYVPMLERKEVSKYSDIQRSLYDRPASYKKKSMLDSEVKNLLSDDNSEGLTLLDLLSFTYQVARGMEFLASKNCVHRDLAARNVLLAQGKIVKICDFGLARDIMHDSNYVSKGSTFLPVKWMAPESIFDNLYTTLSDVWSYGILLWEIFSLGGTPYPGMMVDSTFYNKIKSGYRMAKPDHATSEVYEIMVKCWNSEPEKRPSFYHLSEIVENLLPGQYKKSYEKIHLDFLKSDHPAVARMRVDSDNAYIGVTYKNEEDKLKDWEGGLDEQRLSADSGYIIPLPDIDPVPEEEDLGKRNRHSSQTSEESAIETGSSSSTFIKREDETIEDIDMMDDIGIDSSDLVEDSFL
Protocol: as §1

[20] = molecular target: PKBβ(h) (Homo sapiens, UniProt P31751); assay: Kinase panel, residual activity; format: biochemical; conditions: read-out: Percent residual activity
Protocol: as §1

[21] = molecular target: PKCβII(h) (Homo sapiens, UniProt P05771); assay: Kinase panel, residual activity; format: biochemical; conditions: read-out: Percent residual activity
Protocol: as §1

[22] = molecular target: PKCγ(h) (Homo sapiens, UniProt P05129); assay: Kinase panel, residual activity; format: biochemical; conditions: read-out: Percent residual activity
Protocol: as §1

[23] = molecular target: PKCθ(h) (Homo sapiens, UniProt Q04759); assay: Kinase panel, residual activity; format: biochemical; conditions: read-out: Percent residual activity
Protocol: as §1

[24] = molecular target: PKCι(h) (Homo sapiens, UniProt P41743); assay: Kinase panel, residual activity; format: biochemical; conditions: read-out: Percent residual activity
Protocol: as §1

[25] = molecular target: PRK2(h) (Homo sapiens, UniProt Q16513); assay: Kinase panel, residual activity; format: biochemical; conditions: read-out: Percent residual activity
Protocol: as §1

[26] = molecular target: RIPK2(h) (Homo sapiens, UniProt O43353); assay: Kinase panel, residual activity; format: biochemical; conditions: read-out: Percent residual activity
Protocol: as §1

[27] = molecular target: ROCK-II(h) (Homo sapiens, UniProt O75116); assay: Kinase panel, residual activity; format: biochemical; conditions: read-out: Percent residual activity
Protocol: as §1

[28] = molecular target: Rsk2(h) (Homo sapiens, UniProt P51812); assay: Kinase panel, residual activity; format: biochemical; conditions: read-out: Percent residual activity
Protocol: as §1

[29] = molecular target: SAPK3(h) (Homo sapiens, UniProt P53778); assay: Kinase panel, residual activity; format: biochemical; conditions: read-out: Percent residual activity
Protocol: as §1

[30] = molecular target: TrkB(h) (Homo sapiens, UniProt Q16620); assay: Kinase panel, residual activity; format: biochemical; conditions: read-out: Percent residual activity
Sequence of TrkB(h) (Q16620 32-822): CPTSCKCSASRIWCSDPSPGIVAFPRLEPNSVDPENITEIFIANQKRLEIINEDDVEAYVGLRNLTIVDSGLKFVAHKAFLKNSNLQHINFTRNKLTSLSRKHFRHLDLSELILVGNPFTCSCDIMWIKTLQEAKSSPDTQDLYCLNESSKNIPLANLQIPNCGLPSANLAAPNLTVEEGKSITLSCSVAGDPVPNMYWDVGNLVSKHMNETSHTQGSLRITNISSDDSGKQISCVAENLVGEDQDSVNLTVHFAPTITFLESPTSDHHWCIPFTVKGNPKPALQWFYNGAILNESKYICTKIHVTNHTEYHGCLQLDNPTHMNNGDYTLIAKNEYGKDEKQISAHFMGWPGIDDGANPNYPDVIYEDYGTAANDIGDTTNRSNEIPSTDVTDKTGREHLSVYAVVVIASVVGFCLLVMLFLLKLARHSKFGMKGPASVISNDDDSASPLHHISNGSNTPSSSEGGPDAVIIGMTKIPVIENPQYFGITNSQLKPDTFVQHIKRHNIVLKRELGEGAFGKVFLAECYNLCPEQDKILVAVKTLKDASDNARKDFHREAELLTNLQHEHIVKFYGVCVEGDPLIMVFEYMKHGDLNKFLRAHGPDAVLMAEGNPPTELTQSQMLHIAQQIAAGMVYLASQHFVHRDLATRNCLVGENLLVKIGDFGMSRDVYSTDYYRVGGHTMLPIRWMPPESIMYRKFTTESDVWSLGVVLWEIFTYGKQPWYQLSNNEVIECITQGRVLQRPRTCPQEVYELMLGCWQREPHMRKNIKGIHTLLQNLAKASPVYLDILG
Protocol: as §1

[31] = system: SKOV3 (ovarian cancer cell line, wild-type B-Raf); assay: Cell proliferation assay; format: cell-based; conditions: Homo sapiens, SK-OV-3, read-out: Cell Line IC50 SKOV3
Protocol: In one illustrative method, cells are treated with various concentrations of the inhibitor in 96 well plates, incubated at 37° C./5% CO2 for three days, and analyzed using the Cell Titer Glo kit (Promega).
COLO829 is a human melanoma cell line. HT29 is a human colon cancer cell line. Both cell lines have a V600E B-Raf mutation. SKOV3 is an ovarian cancer cell line having wild-type B-Raf. EKR2 (extra-cellular signal regulated kinase 2) is a kinase in the Ras/B-Raf MAP kinase cascade pathway.

COc1cc(O)c2c(c1)[C@H]1O[C@@H]1C[C@H](O)[C@H](O)C(=O)/C=C\C[C@H](C)OC2=O [Hypothemycin, hypothemycin]
remaining activity at 0.2 µM [1]: 89% | remaining activity at 0.2 µM [2]: 103% | remaining activity at 0.2 µM [3]: 95% | remaining activity at 0.2 µM [4]: 97% | remaining activity at 0.2 µM ([5]; 0.2 μM): 106% | remaining activity at 2 µM ([5]; 2.0 μM): 94% | remaining activity at 0.2 µM [6]: 87% | remaining activity at 0.2 µM [7]: 87% | remaining activity at 0.2 µM ([8]; 0.2 μM): 4% | remaining activity at 2 µM ([8]; 2.0 μM): 2% | remaining activity at 0.2 µM [9]: 87% | remaining activity at 0.2 µM [10]: 101% | remaining activity at 0.2 µM ([11]; 0.2 μM): 81% | remaining activity at 2 µM ([11]; 2.0 μM): 94% | remaining activity at 0.2 µM [12]: 93% | remaining activity at 0.2 µM [13]: 98% | remaining activity at 0.2 µM ([14]; 0.2 μM): 82% | remaining activity at 2 µM ([14]; 2.0 μM): 83% | remaining activity at 0.2 µM [15]: 98% | remaining activity at 0.2 µM ([16]; 0.2 μM): 85% | remaining activity at 2 µM ([16]; 2.0 μM): 41% | remaining activity at 0.2 µM [17]: 101% | remaining activity at 0.2 µM [18]: 94% | remaining activity at 0.2 µM ([19]; 0.2 μM): 77% | remaining activity at 2 µM ([19]; 2.0 μM): 20% | remaining activity at 0.2 µM [20]: 91% | remaining activity at 0.2 µM [21]: 97% | remaining activity at 0.2 µM [22]: 98% | remaining activity at 0.2 µM [23]: 104% | remaining activity at 0.2 µM [24]: 108% | remaining activity at 0.2 µM [25]: 108% | remaining activity at 0.2 µM [26]: 101% | remaining activity at 0.2 µM [27]: 104% | remaining activity at 0.2 µM [28]: 91% | remaining activity at 0.2 µM [29]: 104% | remaining activity at 0.2 µM ([30]; 0.2 μM): 58% | remaining activity at 2 µM ([30]; 2.0 μM): 18% | IC50 [31]: ~4 µM

— patent US20100004234A1, “SPECIFIC KINASE INHIBITORS” (Kosan Biosciences Incorporated, priority 2004, published 2010)
